Laboratory results: patent publication US8168651B2, “Protein kinase modulators” (Cylene Pharmaceuticals, Inc., priority 2008, dated 2012)

Legend:
[1] = target: recombinant human CK2 (Homo sapiens (Human), UniProt P68400); test: CK2 assay (cell-free, 33P-ATP filter plate); assay type: biochemical; settings: 10 uM; read-out: CK2 % inhib @ 10 uM
[2] = target: recombinant human PIM1 (Homo sapiens (Human), UniProt P11309); test: PIM-1 kinase activity in cell-free in vitro assay; assay type: biochemical; settings: cell-free; for inhibition at 0.5 µM: 500 nM compound, read-out: PIM-1: % inh 500 nM
[3] = tested on: HCT-116 human colorectal carcinoma cells; test: Cell-proliferation assay using Alamar Blue dye; assay type: cell-based; settings: Homo sapiens, HCT-116, read-out: HCT-116 (uM), cell proliferation modulatory activity, HCT-116, second column;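 further: cells exposed to compound for about 4 days, then Alamar Blue added and dye fluorescence read after about 4 h, compared with medium-only control wells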

Chain of recombinant human CK2 (P68400 whole entry): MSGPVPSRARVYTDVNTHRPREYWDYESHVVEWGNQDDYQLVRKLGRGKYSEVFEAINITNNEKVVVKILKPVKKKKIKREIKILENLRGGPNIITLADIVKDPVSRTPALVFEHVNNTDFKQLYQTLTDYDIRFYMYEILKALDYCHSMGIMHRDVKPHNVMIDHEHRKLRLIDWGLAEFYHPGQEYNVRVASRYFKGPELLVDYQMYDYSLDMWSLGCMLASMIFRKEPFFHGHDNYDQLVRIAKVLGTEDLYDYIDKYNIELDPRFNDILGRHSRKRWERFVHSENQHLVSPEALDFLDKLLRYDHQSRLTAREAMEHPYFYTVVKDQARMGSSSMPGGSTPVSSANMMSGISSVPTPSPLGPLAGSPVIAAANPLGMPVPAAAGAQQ
Chain of recombinant human CK2 (P67870 whole entry partner): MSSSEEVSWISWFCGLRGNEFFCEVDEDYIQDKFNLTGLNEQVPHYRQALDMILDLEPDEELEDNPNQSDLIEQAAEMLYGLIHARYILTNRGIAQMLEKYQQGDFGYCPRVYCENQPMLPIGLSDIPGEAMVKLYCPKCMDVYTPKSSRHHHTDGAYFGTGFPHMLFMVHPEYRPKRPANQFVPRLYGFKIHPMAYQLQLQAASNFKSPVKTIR
Chain of recombinant human PIM1 (P11309 whole entry): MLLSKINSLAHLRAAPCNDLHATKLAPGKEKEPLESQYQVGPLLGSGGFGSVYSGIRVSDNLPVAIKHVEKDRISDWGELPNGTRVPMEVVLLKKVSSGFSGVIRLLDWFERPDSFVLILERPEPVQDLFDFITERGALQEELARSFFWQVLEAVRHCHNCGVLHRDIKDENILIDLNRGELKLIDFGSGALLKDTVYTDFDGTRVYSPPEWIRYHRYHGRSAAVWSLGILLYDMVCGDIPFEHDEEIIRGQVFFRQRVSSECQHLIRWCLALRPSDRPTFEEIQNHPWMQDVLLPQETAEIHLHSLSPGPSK

Row | SMILES | inhibition at 10 µM [1] [%] | other results
1 | O=c1[nH]c2ccccc2c2sccc12 | 0 | 
2 | COC(=O)c1ccc2c(c1)[nH]c(=O)c1ccsc12 | 17 | 
3 | O=C(O)c1ccc2c(c1)[nH]c(=O)c1cc(Br)sc12 | 5 | 
4 | CC(C)(C)OC(=O)CCNC(=O)c1ccc2c(c1)[nH]c(=O)c1ccsc12 | 8 | 
5 | COC(=O)CNC(=O)c1ccc2c(c1)[nH]c(=O)c1ccsc12 | 10 | 
6 | O=C(O)CCNC(=O)c1ccc2c(c1)[nH]c(=O)c1ccsc12 | 16 | 
7 | O=C(O)CNC(=O)c1ccc2c(c1)[nH]c(=O)c1ccsc12 | 12 | 
8 | O=C(Nc1nccs1)c1ccc2c(c1)[nH]c(=O)c1ccsc12 | 10 | 
9 | O=C(Nc1cccnc1)c1ccc2c(c1)[nH]c(=O)c1ccsc12 | -9 | 
10 | O=C(Nc1ccc(Cl)cc1)c1ccc2c(c1)[nH]c(=O)c1ccsc12 | -10 | 
11 | O=C(NCCc1cnc[nH]1)c1ccc2c(c1)[nH]c(=O)c1ccsc12 | 7 | 
12 | O=C(NCCN1CCOCC1)c1ccc2c(c1)[nH]c(=O)c1ccsc12 | -9 | 
13 | O=C(c1ccc2c(c1)[nH]c(=O)c1ccsc12)N1CCOCC1 | 2 | 
14 | CCCNC(=O)c1ccc2c(c1)[nH]c(=O)c1ccsc12 | -34 | 
15 | O=C(NCCc1ccccn1)c1ccc2c(c1)[nH]c(=O)c1ccsc12 | -24 | 
16 | COCCNC(=O)c1ccc2c(c1)[nH]c(=O)c1ccsc12 | -19 | 
17 | COc1ccc(CCNC(=O)c2ccc3c(c2)[nH]c(=O)c2ccsc23)cc1OC | -22 | 
18 | CN(C)C(=O)c1ccc2c(c1)[nH]c(=O)c1ccsc12 | 3 | 
19 | CC(=O)N1CCN(C(=O)c2ccc3c(c2)[nH]c(=O)c2ccsc23)CC1 | 7 | 
20 | O=C(NC1CC1)c1ccc2c(c1)[nH]c(=O)c1ccsc12 | 0 | 

Row | SMILES | inhibition at 10 µM [1] [%] | other results
21 | CC(C)(C)OC(=O)N1CCN(C(=O)c2ccc3c(c2)[nH]c(=O)c2ccsc23)CC1 | -25 | 
22 | COc1ccccc1CNC(=O)c1ccc2c(c1)[nH]c(=O)c1ccsc12 | 8 | 
23 | Cc1cc(CNC(=O)c2ccc3c(c2)[nH]c(=O)c2ccsc23)no1 | -13 | 
24 | COc1ccc(CNC(=O)c2ccc3c(c2)[nH]c(=O)c2ccsc23)cc1 | 1 | 
25 | O=C(NCc1ccccn1)c1ccc2c(c1)[nH]c(=O)c1ccsc12 | 3 | 
26 | O=C(NCCc1ccccc1)c1ccc2c(c1)[nH]c(=O)c1ccsc12 | 1 | 
27 | O=C(NCc1ccncc1)c1ccc2c(c1)[nH]c(=O)c1ccsc12 | -13 | 
28 | O=C(NCc1cccnc1)c1ccc2c(c1)[nH]c(=O)c1ccsc12 | -24 | 
29 | O=C(Nc1ccc(CN2CCS(=O)(=O)CC2)cc1)c1ccc2c(c1)[nH]c(=O)c1ccsc12 | -1 | 
30 | O=C(c1ccc2c(c1)[nH]c(=O)c1ccsc12)N1CCNCC1 | -27 | 
31 | NC1CCN(C(=O)c2ccc3c(c2)[nH]c(=O)c2ccsc23)CC1 | -3 | 
32 | O=C(Nc1ccccc1C(=O)O)c1ccc2c(c1)[nH]c(=O)c1ccsc12 | 41 | 
33 | NC(=O)c1ccc2c(c1)[nH]c(=O)c1ccsc12 | -14 | 
34 | O=c1[nH]c2cc(CO)ccc2c2sccc12 | 3 | 
35 | N#Cc1ccc2c(c1)[nH]c(=O)c1ccsc12 | -5 | 
36 | O=C(O)c1ccc2c(c1)nc(Nc1cccc(Br)c1)c1ccsc12 |  | inhibition at 0.5 µM [2]: 57.9%; IC50 [2]: 553 nM; IC50 [3]: > 10 µM
37 | O=C(O)c1ccc2c(c1)nc(Nc1cccc(Cl)c1F)c1ccsc12 |  | inhibition at 0.5 µM [2]: 27.6%; IC50 [3]: > 10 µM
38 | O=C(O)c1ccc2c(c1)nc(Nc1ccc3[nH]ccc3c1)c1ccsc12 |  | inhibition at 0.5 µM [2]: 51.9%; IC50 [2]: 679 nM; IC50 [3]: > 10 µM
39 | Cc1cccc(Nc2nc3cc(C(=O)O)ccc3c3sccc23)c1 |  | inhibition at 0.5 µM [2]: 59.1%; IC50 [2]: 530 nM; IC50 [3]: > 10 µM
